Reference: ChEMBL document CHEMBL3507680, “University of Dundee, Gates Library screen for HepG2 cell viability”

Assay: Human HepG2 cell viability assay in 384 well format
Format: toxicity, cell-based
Parameters: dose 125 nL, time 70.5 hour; concentration not given beside the values
Conditions: HepG2 cells, read-out: Inhibition

SMILES | cytotoxicity at 70.5 h
COc1ccc(C(=O)NC2CC2)c(OC2CCN(CC3CC3)CC2)c1 | -2.04%
CC[C@H](C)[C@@H](CO)NC(C)Cc1ccc(F)cc1 (some centres undefined) | -5.84%
CS(=O)(=O)N1C[C@@H]2CC[C@H](C1)N(Cc1ccc3nsnc3c1)C2 | 18.3%
Cn1c(CN2CCCC(Cn3cc(CCO)nn3)C2)cc2ccccc21 (centres undefined) | -0.291%
O=C1CCCCN1CC(=O)N1CCCC(c2ccccc2)C1 (centres undefined) | -20.6%
CN(CCc1ccccn1)C(=O)CCC1CCCN(c2ncccn2)C1 (centres undefined) | -1.54%
CN1C(=O)C(c2ccccc2)CC12CCN(CCN)CC2 (centres undefined) | -5.41%
Cc1cccc(OC2CN(C(=O)c3cnn(C)c3)C2)c1 | 16.2%
Cc1csc(CN(C)C(=O)c2cccc(CCC(C)(C)O)c2)n1 | -6.05%
COc1cccc(CCC2CCCN(C(=O)c3ccc(=O)n(C)n3)C2)c1 (centres undefined) | -6.31%
COCCC1CN(c2nc(-c3ccccc3)nc3c2CCNC3)CCO1 (centres undefined) | 25.4%
c1cncc(-c2cccc(-c3ccn(CCN4CCCCC4)n3)c2)c1 | 13.9%
CS(=O)(=O)N1CC[C@]2(O)CCN(c3cc(C#N)ccn3)C[C@@H]2C1 | -11.9%
CC[C@@]1(O)CCN(C(=O)c2cccc3cc(C)oc23)C[C@H]1O | 6.9%
CC(C)c1cc(C2CCN(C(=O)Cn3cncn3)CC2)[nH]n1 | 43.3%
CC1(C)Cc2nc(C(C)(C)C)ncc2C(NC(=O)Cc2nnn[nH]2)C1 (centres undefined) | 52.3%
CN1CCN(Cc2c[nH]cn2)CC12CCC(=O)N(CC1CC1)CC2 (centres undefined) | 6.57%
O=C(C1CC12CCC2)N1CCC(n2cc(-c3ccsc3)nn2)CC1 (centres undefined) | -9.29%
O=C(CCn1cncn1)N1CCC2(CC1)[C@H](O)C[C@@H]2OCCO | 0.165%
CNc1nc(C(=O)N2CCC3(CCCN(CCOC)C3=O)C2)cs1 (centres undefined) | -3.96%
N#Cc1ccc(N2CCC(c3nccn3Cc3cscn3)CC2)nc1 | -0.885%
Cc1nc(CN2CCCC(CCc3ccccc3C)C2)c[nH]1 (centres undefined) | 19%

SMILES | cytotoxicity at 70.5 h
COc1ccccc1OCCCn1c(C)c(C)oc1=O | 2.36%
COc1ccccc1OCCCc1cc(C)nc(N)n1 | -7.2%
Cc1cc(C(=O)N2C[C@H]3CC[C@@H]2CN(Cc2ccccn2)C3)nc(C)n1 | -0.674%
O=C(NCCC1CCCCO1)c1cc(COc2ccccc2F)[nH]n1 (centres undefined) | -4.49%
COc1cc(NCCCSc2nnc(C)s2)ncn1 | 12%
CN(C)c1ccccc1C(=O)N1C[C@@H](CN2CCC(O)CC2)[C@@H](CO)C1 | 1.37%
Cc1ccsc1CN(CCCC(F)(F)F)Cc1ccccn1 | -10.1%
Cc1cc(-c2nn(C)c(Cl)c2CN2CCC3(CC2)[C@H](O)C[C@@H]3O)no1 | -4.3%
CN(C)C(=O)c1ccc(-c2cccc3c2CCNC3)cc1 | -18%
COc1cc(CNc2nc3c(c(=O)[nH]2)CCNC3)cc(OC)c1OC | -6.47%
CC(C)=CCC1(C(=O)O)CCCN(c2cc(N)ncn2)C1 (centres undefined) | 6.26%
Cc1ccc(C(C)NCc2cn(CCC(N)=O)c3ccccc23)cc1C (centres undefined) | -3.87%
Cc1nn(C)c2nc(N3CCN(Cc4nccn4C)CC3)sc12 | -8.28%
CCCc1nc(CN(CC)C(=O)c2ccc3[nH]cnc3c2)no1 | 23.9%
CCN(Cc1noc(CC(C)C)n1)Cc1ncccc1C(=O)O | -3.41%
CCc1nnc(CNC2CCN(c3ncnc4c(C)csc34)CC2)s1 | -1.72%
COc1nccnc1N1CCN(Cc2cccc(C)c2)C(=O)C1 | 7%
CCC[C@H]1CN(S(C)(=O)=O)C[C@@H]1NC(=O)CCCn1ccnc1 | 1.51%
O=C(NCCCn1cccn1)C1CCC(=O)N(CC2CCCCC2)C1 (centres undefined) | -2.08%
CCC(CO)N(Cc1ccsc1)Cc1ccccc1C#N (centres undefined) | -11.3%
COc1cccc(-c2nc3c([nH]2)CC(C)(C)CNC3=O)c1OC | -9.59%
CN(CCc1ccccn1)C(=O)C1Cc2ccccc2CN1C (centres undefined) | -10.6%
